Experimental data as given in paper PMC8379256, “A xanthene derivative, DS20060511, attenuates glucose intolerance by inducing skeletal muscle-specific GLUT4 translocation in mice” (Communications Biology, 2021).
Several values for one entry are separate records, joined by “and”; a condition that tells them apart may be missing. Identical values can stand only once.

Key:
C57BL/6 mice = experiment: Oral glucose tolerance test (GTT) in C57BL/6 mice: blood glucose and plasma insulin; type: in vivo, mouse; design: Blood glucose AUC: unit not given here
Description: Fig. 2 Treatment with DS20060511 decreases the blood glucose levels via inducing GLUT4 translocation and increasing skeletal muscle glucose uptake. a, b Blood glucose levels after treatment with DS20060511 (30 mg kg^−1) in C57BL/6 mice that had received continued access to food (a) and mice that had been denied access to food overnight (b) (n = 8). Values shown are means ± SEM. **P < 0.01 vs. 0 min by one-way ANOVA followed by Dunnett’s test. c Blood glucose and plasma insulin levels during oral GTT in the C57BL/6 mice (n = 5–6). The mice received oral administration of vehicle or DS20060511 at the indicated dose, 15 min prior to glucose administration (1.5 g kg^−1). Values shown are means ± SEM. *P < 0.05, **P < 0.01 vs. vehicle by one-way ANOVA followed by Williams’ test. d [^3H]-2-DG uptake in the soleus muscle, gastrocnemius muscle (Gastro.), heart, and white adipose tissue (WAT) at 60 min during the intraperitoneal GTT in the C57BL/6 mice (n = 3). The mice received oral administration of vehicle or DS20060511 (30 mg kg^−1), 15 min prior to glucose administration (1 g kg^−1 glucose containing [^3H]-2-DG). […] Uncropped blots for e can be found in Supplementary Fig. 6.
(§1) Mice that had been denied access to food overnight received the indicated oral dose of DS20060511 or vehicle 15 min prior to the glucose load (1.5 g kg^−1, except for eNOS-knockout mice, which received 3.0 g kg^−1). Then, after the oral glucose load, the blood glucose levels were measured using Glutest Every in samples obtained from the tail vein at the indicated timepoints. Plasma insulin concentrations were also measured with an ELISA kit (Morinaga Institute of Biological Science, Yokohama, Japan) in blood samples collected from the tail vein at the indicated timepoints.

AMPKα = AMPKα phosphorylation in triceps surae muscle in vivo; design: species or system mouse; details: no-exercise condition, 10 mg kg−1, Fig. 6c
Description: The tissue sample was homogenized with a Polytron homogenizer and lysed in a lysis buffer (25 mM Tris-HCl, pH 7.4, 100 mM NaF, 50 mM Na4P2O7, 10 mM EGTA, 10 mM EDTA, 10 mM Na3VO4, 1 mM PMSF, and 1% NP-40) on ice, and the lysate was centrifuged at 17,860 × g for 10 min at 4 °C. The supernatant was collected and the protein concentrations were determined by BCA assay (Thermo Fisher Scientific). Immunoprecipitation of IRβ and IRS1 was performed as described previously, using specific antibodies against IRβ (sc-711, Santa Cruz Biotechnology, Dallas, TX), IRS1 (06-248, Merck Millipore, Burlington, MA), and for detection of phosphotyrosine (05-321, Merck Millipore). Five milligrams of the extracts were incubated with specific antibodies against IRS1 for 1 h at 4 °C. Then, protein G-Sepharose was added, followed by incubation for 2 h at 4 °C. After washing three times, the immunocomplexes were subjected to immunoblotting.
Phosphorylated or total protein of IRβ and IRS1 was resolved on 7% SDS-PAGE and analyzed using specific antibodies against IRβ, IRS1, and phosphotyrosine. […] Bound antibodies were detected with HRP-conjugated secondary antibodies using ECL detection reagents (GE Healthcare, Chicago, IL).

WT and eNOSKO mice = experiment: Oral GTT in wild-type and eNOS-knockout mice; type: in vivo, mouse; details: for Blood glucose: Glucose tolerance test, Wildtype, 10 mg/kg, individual animals
Description: Fig. 7 DS20060511 treatment decreases blood glucose levels in both WT and eNOSKO mice during oral GTT and ITT. a, b Blood glucose levels during oral GTT in wild-type (WT, n = 5) and eNOS-knockout (KO, n = 5–6) mice. Mice received vehicle or DS20060511 (10 mg kg^−1) orally 15 min before the glucose administration (3.0 g kg^−1). c, d Blood glucose levels during ITT in WT (n = 4) and KO (n = 5) mice. Vehicle or DS20060511 (30 mg kg^−1) was given orally at the same time as 0.5 U kg^−1 insulin injection intraperitoneally. Values shown are means ± SEM. *P < 0.05, **P < 0.01, ***P < 0.001 vs. vehicle by the t-test.
C57BL/6 and db/db mice were purchased from CLEA Japan, Tokyo, Japan. GLUT4- knockout mice were generated at RIKEN BioResource Center, Tsukuba, Japan, according to a previously described method. eNOS-knockout mice were kindly provided by Dr. Masato Tsutsui[41],[42]. The mice were group-housed under controlled illumination (12:12 h light-dark cycle) and temperature (23 ± 2 °C) conditions and given free access to normal chow and water, unless otherwise specified. The HFD-fed obese mice were prepared by feeding C57BL/6 mice a HFD for at least 8 weeks from 6 weeks of age. […] Male mice were used for all the experiments in this study. The animal care and experimental procedures used in the study were approved by The University of Tokyo Animal Care Committee (Approval number: 27-3), and the study was carried out in accordance with the Animal Experimentation Guidelines of Daiichi Sankyo Co., Ltd (Approved number: 20000411).
as §1

## COc1ccc2c(C)c(C(=O)O)ccc2c1C1C2=C(CC(C)(C)CC2=O)OC2=C1C(=O)CC(C)(C)C2 [DS20060511]
C57BL/6 mice; all DS20060511-treated groups, Fig. 2c
  insulin secretion during oral GTT (in words): significantly decreased
C57BL/6 mice; oral GTT, 1 mg/kg
  Blood glucose AUC: 366 and 401 and 377 and 335 and 390 and 419
  Plasma insulin AUC: 0.29 and 0.49 and 0.32 and 0.27 and 0.43
C57BL/6 mice; oral GTT, 1 mg/kg po at -15 min, -15 min, 1 mg/kg
  Blood glucose: 83 mg/dL and 81 mg/dL and 91 mg/dL and 77 mg/dL and 94 mg/dL and 72 mg/dL
C57BL/6 mice; oral GTT, 1 mg/kg, 0 min
  Blood glucose: 104 mg/dL and 115 mg/dL and 92 mg/dL and 106 mg/dL and 89 mg/dL
C57BL/6 mice; oral GTT, 1 mg/kg, 15 min
  Blood glucose: 270 mg/dL and 311 mg/dL and 217 mg/dL and 301 mg/dL
C57BL/6 mice; oral GTT, 1 mg/kg, 30 min
  Blood glucose: 242 mg/dL and 212 mg/dL and 228 mg/dL and 193 mg/dL and 199 mg/dL and 254 mg/dL
  Plasma insulin: 0.30 ng/mL and 0.44 ng/mL and 0.25 ng/mL and 0.34 ng/mL and 0.42 ng/mL and 0.33 ng/mL
C57BL/6 mice; oral GTT, 1 mg/kg, 60 min
  Blood glucose: 171 mg/dL and 217 mg/dL and 165 mg/dL and 153 mg/dL and 199 mg/dL and 230 mg/dL
C57BL/6 mice; oral GTT, 1 mg/kg, 90 min
  Blood glucose: 118 mg/dL and 159 mg/dL and 127 mg/dL and 138 mg/dL and 142 mg/dL and 153 mg/dL
C57BL/6 mice; oral GTT, 1 mg/kg, 120 min
  Blood glucose: 106 mg/dL and 119 mg/dL and 109 mg/dL and 124 mg/dL and 132 mg/dL
C57BL/6 mice; oral GTT, 3 mg/kg
  Blood glucose AUC: 360 and 323 and 398 and 316 and 320 and 374
  Plasma insulin AUC: 0.28 and 0.40 and 0.34 and 0.29 and 0.31
C57BL/6 mice; oral GTT, 3 mg/kg, 0 min
  Blood glucose: 104 mg/dL and 117 mg/dL and 90 mg/dL
C57BL/6 mice; oral GTT, 3 mg/kg, 15 min
  Blood glucose: 263 mg/dL and 240 mg/dL and 249 mg/dL and 228 mg/dL
  Plasma insulin: 0.51 ng/mL and 0.58 ng/mL and 0.65 ng/mL and 0.53 ng/mL
C57BL/6 mice; oral GTT, 3 mg/kg, 30 min
  Blood glucose: 228 mg/dL and 164 mg/dL and 233 mg/dL and 181 mg/dL
  Plasma insulin: 0.28 ng/mL and 0.30 ng/mL and 0.37 ng/mL and 0.39 ng/mL and 0.26 ng/mL
C57BL/6 mice; oral GTT, 3 mg/kg, 60 min
  Blood glucose: 161 mg/dL and 142 mg/dL and 202 mg/dL and 152 mg/dL
C57BL/6 mice; oral GTT, 3 mg/kg, 90 min
  Blood glucose: 132 mg/dL and 126 mg/dL and 148 mg/dL and 100 mg/dL
C57BL/6 mice; oral GTT, 3 mg/kg, 120 min
  Blood glucose: 105 mg/dL and 122 mg/dL and 129 mg/dL
C57BL/6 mice; oral GTT, 3 mg/kg, -15 min
  Blood glucose: 82 mg/dL and 84 mg/dL and 94 mg/dL and 79 mg/dL
C57BL/6 mice; oral GTT, 10 mg/kg
  Blood glucose AUC: 294 and 310 and 309 and 270 and 269
  Plasma insulin AUC: 0.29 and 0.30 and 0.32 and 0.43 and 0.41
C57BL/6 mice; oral GTT, 10 mg/kg, 15 min
  Plasma insulin: 0.51 ng/mL and 0.50 ng/mL and 0.54 ng/mL and 0.40 ng/mL and 0.68 ng/mL
C57BL/6 mice; oral GTT, 10 mg/kg, 30 min
  Plasma insulin: 0.35 ng/mL and 0.28 ng/mL and 0.43 ng/mL and 0.31 ng/mL and 0.46 ng/mL
C57BL/6 mice; oral GTT, 30 mg/kg
  Blood glucose AUC: 258 and 200 and 219 and 225 and 241
  Plasma insulin AUC: 0.21 and 0.30 and 0.35 and 0.22 and 0.34
C57BL/6 mice; oral GTT, 30 mg/kg, 15 min
  Plasma insulin: 0.46 ng/mL and 0.58 ng/mL and 0.48 ng/mL and 0.34 ng/mL
C57BL/6 mice; oral GTT, given prior to glucose load, Fig. 2c
  blood glucose levels after oral glucose load (in words): dose-dependent suppression of rise of the blood glucose levels
AMPKα
  AMPK phosphorylation level in the skeletal muscle: remained unchanged
WT and eNOSKO mice; 0 min
  Blood glucose: 96 mg/dL and 111 mg/dL and 104 mg/dL and 93 mg/dL and 82 mg/dL
WT and eNOSKO mice; 15 min
  Blood glucose: 260 mg/dL and 212 mg/dL and 232 mg/dL and 229 mg/dL and 231 mg/dL and 181 mg/dL
WT and eNOSKO mice; 30 min
  Blood glucose: 253 mg/dL and 242 mg/dL and 215 mg/dL and 185 mg/dL and 284 mg/dL and 213 mg/dL
WT and eNOSKO mice; 60 min
  Blood glucose: 212 mg/dL and 210 mg/dL and 226 mg/dL and 281 mg/dL and 196 mg/dL
WT and eNOSKO mice; 90 min
  Blood glucose: 159 mg/dL and 172 mg/dL and 132 mg/dL and 150 mg/dL and 218 mg/dL and 154 mg/dL
WT and eNOSKO mice; 120 min
  Blood glucose: 120 mg/dL and 128 mg/dL and 115 mg/dL and 130 mg/dL and 170 mg/dL and 127 mg/dL
WT and eNOSKO mice; -15 min
  Blood glucose: 79 mg/dL and 94 mg/dL and 75 mg/dL and 91 mg/dL and 73 mg/dL and 81 mg/dL
WT and eNOSKO mice; WT and eNOSKO mice, 10 mg kg−1 po
  blood glucose levels during oral GTT (in words): significantly decreased blood glucose levels in both the WT and eNOSKO mice
